Tests used:
[1] = Efficacy of renitrosation catalysts by N1-nitrozotriptophan denitrosation kinetics; assay type: biochemical; settings: 32°C, normalized for the buffer molarity
Protocol: The efficacy of renitrosation catalysts was determined by N^1-nitrozotriptophan (NOW) denitrosation kinetics in the composition of an acylic derivative or serum albumin at 32°C and at different pH values by absorption decrease at λ = 340 nm or by differential spectroscopy relative to denitrosation reaction in a buffer solution, in relation to nitrite/nitrate ratio or by the ratio analysis of nitrosation products. Examples 7-17 illustrate catalytic and inhibitory activity of W^0/W^0buffer compounds used in the claimed compositions (normalized for the buffer molarity).

NO oxidation in blood = test: In vivo micellar NO oxidation catalysis: arterial pressure and plasma nitrite/nitrate; set-up: species or system male rats of Wistar normotensive line; settings: for nitrate increased by / nitrite level increased by: plasma, following NaNO2 injection
Protocol: The experiment was performed on male rats of Wistar normotensive line weighing 180-400 grams. Polyethylene catheters were implanted to animals under Ketamine anesthesia (5mg/100g intraperitoneally) 24 hours prior to the experiment. The femoral artery was catheterized for connecting to arterial blood pressure (AP) transducer and the femoral vein was catheterized for intravenous administering medicinal preparations. AP and heart rate (HR) were measured in the abdominal aorta using a pressure transducer connected to a computer through an amplifier and a digital converter. The animals were divided into groups each consisting of a control and a test subgroups. […] Monitoring AP and HR was continued for 1.5 hours after administering the solutions. Following recording initial AP level group one (group L-NAME) was intraperitonelly administered an inhibitor of NO-synthases N^ω-nitro-L-arginine methyl ester (50 mg/kg) and in 1.5 hours when AP stabilized at a steady level NaNO2 (1 mg/kg) was administered. After a steady lowering AP the animals were administered Perftoran or KH. Group two of rats (group FC) was administered Perftoran or KH immediately after recording initial AP level. Group three (group FCTh) was first administered 200 mg/kg α-lipoic acid and in 15 minutes it was administered Perftoran (or KH). Before commencement of each experiment, after AP got stabilized at a steady level while administering L-NAME and NaNO2 and also immediately following completion of monitoring 0.2 ml blood were taken in each experiment from the arterial catheter for analysis.

[2] = reference buffer Phosphate, pH 6.3
[3] = group L-NAME, experimental animals

Compound: O=P([O-])([O-])OP(=O)([O-])OP(=O)([O-])[O-].[Na+].[Na+].[Na+].[Na+].[Na+] [Example 7, Na5P3O10]
- W^0/W^0 buffer [1, 2]: 4

Compound: O=P([O-])([O-])OP(=O)([O-])OP(=O)([O-])[O-].[Mg+2].[Na+].[Na+].[Na+] [Example 10, Na3MgP3O10]
- W^0/W^0 buffer [1, 2]: 11

Compound: Na2MnATP [Example 8]
- W^0/W^0 buffer [1, 2]: 0.7

Compound: COC(=O)[C@@H](N)CCCNC(=N)N[N+](=O)[O-] [L-NAME, N^ω-nitro-L-arginine methyl ester]
- Plasma levels of nitrites and nitrates (NO oxidation in blood; group L-NAME, after NOS inhibitor administration): insignificant lowering
- mean arterial blood pressure (MAP) raised by (NO oxidation in blood; group L-NAME, both subgroups, following L-NAME 50 mg/kg intraperitoneally): 38±5 mm Hg

Compound: O=N[O-].[Na+] [NaNO2]
- lowering MAP by (NO oxidation in blood; group L-NAME, both subgroups, NaNO2 1 mg/kg after L-NAME): 25±4 mm Hg
- nitrate increased by (NO oxidation in blood; group L-NAME, controls): 76 ± 26 µM
- nitrite level increased by (NO oxidation in blood; group L-NAME, controls): 362 ± 73 µM
- nitrate increased by (NO oxidation in blood; [3]): 87 ± 15 µM
- nitrite level increased by (NO oxidation in blood; [3]): 344 ± 68 µM

Compound: NC(N)=NCCCC(N)C(=O)O [Example 13, D-Arg]
- W^0/W^0 buffer ([1]; reference buffer MOPS, pH 6): 0.56

Compound: O=C(O)CCCCC1CCSS1 (stereo not drawn) [α-lipoic acid]
- MAP change (NO oxidation in blood; FCTh group, both subgroups, α-lipoic acid 200 mg/kg): insignificant lowering MAP

Compound: O=P([O-])([O-])OP(=O)([O-])OP(=O)([O-])[O-].[Mn+2].[Na+].[Na+].[Na+] [Example 9, Na3MnP3O10]
- W^0/W^0 buffer [1, 2]: 21

Compound: O=C1O[C@H]([C@@H](O)CO)C(O)=C1O [Example 17, Ascorbic acid]
- W^0/W^0 buffer ([1]; reference buffer Phosphate, pH 5.9): 32

Reference: patent publication EP1214933A1, “METHOD FOR MODULATING THE METABOLISM OF NITROGEN OXIDES, COMPOSITIONS THEREFOR (AND VARIANTS) AND METHOD FOR ACTING ON A PATIENT'S ORGANISM NECESSITATING THE METABOLISM OF NITROGEN OXIDES TO BE CORRECTED” (Institut Molekulyarnoi Genetiki Rossiiskoi Akademii Nauk ( …, priority 1999, dated 2001)
